Assay results: patent US20250230155A1 (Vanderbilt University, priority 2021, published 2025)

Target: T1, human mAChR M4 (Homo sapiens, UniProt P08173)
T1 construct: expressed in transfected cells
T1 sequence (P08173 1-479): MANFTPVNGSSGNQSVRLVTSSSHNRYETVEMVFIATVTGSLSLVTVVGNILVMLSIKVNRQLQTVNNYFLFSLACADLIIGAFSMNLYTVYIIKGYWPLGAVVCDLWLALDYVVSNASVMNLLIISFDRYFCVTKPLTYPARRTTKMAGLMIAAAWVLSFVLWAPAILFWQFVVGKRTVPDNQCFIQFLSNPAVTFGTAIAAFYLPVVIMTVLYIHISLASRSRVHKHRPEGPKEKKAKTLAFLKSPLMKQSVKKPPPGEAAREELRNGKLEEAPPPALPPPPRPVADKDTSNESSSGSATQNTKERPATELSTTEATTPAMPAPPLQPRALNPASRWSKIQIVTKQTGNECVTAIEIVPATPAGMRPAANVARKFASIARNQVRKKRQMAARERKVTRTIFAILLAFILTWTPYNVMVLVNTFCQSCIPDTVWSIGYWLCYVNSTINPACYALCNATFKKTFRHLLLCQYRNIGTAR
Assay: mAChR M4 cell-based functional assay (calcium mobilization, CHO-K1 hM4-Gqi5 cells)
Settings: for EC50: positive allosteric modulator activity, increase in the EC20 acetylcholine response, CHO-K1 hM4-Gqi5 cells, read-out: Human M4 EC50; for Emax: CHO-K1; for Emax at 30 µM: CHO-K1, % ACh maximum at 30 μM, human M4
Outline: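 Fluorescent calcium read-out (Fluo-4 AM, FDSS, 1 Hz) in hM4-Gqi5 CHO-K1 cells, 11-point 1:3 compound series. Agonism scored on compound addition, PAM activity as increase of the 144 s EC20 acetylcholine response, antagonism as decrease of the 230 s EC80 response; four-parameter logistic fits give EC50 and Emax.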

SMILES | EC50 [nM] | Emax [%] | Emax at 30 µM [%]
FC(F)(F)c1cnc2c(c1)CN(c1nc(Cl)nc3c1COC3)CC2 [compound 281, 2-chloro-4-(3-(trifluoromethyl)-7,8-dihydro-1,6-naphthyridin-6(5H)-yl)-5,7-dihydrofuro[3,4-d]pyrimidine] | 3290 | – | –
COCc1nc(Cl)c(C)c(N2CCc3ncc(Br)cc3C2)n1 [compound 211, 3-bromo-6-(6-chloro-2-(methoxymethyl)-5-methylpyrimidin-4-yl)-5,6,7,8-tetrahydro-1,6-naphthyridine] | 123 | 99 | –
Cc1nc(N2CCOCC2)nc(N2CCc3ncc(Nc4ccnn4C)cc3C2)c1C [compound 276, 6-(5,6-dimethyl-2-morpholinopyrimidin-4-yl)-N-(1-methyl-1H-pyrazol-5-yl)-5,6,7,8-tetrahydro-1,6-naphthyridin-3-amine] | 377 | – | 100
Cc1nc(Cl)c(C)c(N2CCc3ncc(C(F)F)cc3C2)n1 [compound 215, 6-(6-chloro-2,5-dimethylpyrimidin-4-yl)-3-(difluoromethyl)-5,6,7,8-tetrahydro-1,6-naphthyridine] | 137 | 93 | –
CCCCn1nc(C)cc1Nc1cnc2c(c1)CN(c1ncc(C#N)cc1C)CC2 [Example 315, 6-(3-((1-butyl-3-methyl-1H-pyrazol-5-yl)amino)-7,8-dihydro-1,6-naphthyridin-6(5H)-yl)-5-methylnicotinonitrile] | 961 | – | 47
Cc1nc(C)c(C)c(N2CCc3ncc(Oc4ccc(F)cc4F)cc3C2)n1 [compound 262, 3-(2,4-difluorophenoxy)-6-(2,5,6-trimethylpyrimidin-4-yl)-5,6,7,8-tetrahydro-1,6-naphthyridine] | 275 | – | 77
[2H]C([2H])(NC(=O)c1cc(C)c(N2CCc3ncc(N4CCCn5nccc54)cc3C2)nn1)c1cscn1 [Example 508, 6-(3-(6,7-dihydropyrazolo[1,5-a]pyrimidin-4(5H)-yl)-7,8-dihydro-1,6-naphthyridin-6(5H)-yl)-5-methyl-N-(thiazol-4-ylmethyl-d2)pyridazine-3-carboxamide] | 13 | – | 82
Cc1cc(C(=O)NCc2ncc(Cl)cn2)cnc1N1CCc2ncccc2C1 [compound 146, N-[(5-chloropyrimidin-2-yl)methyl]-6-(7,8-dihydro-5H-1,6-naphthyridin-6-yl)-5-methyl-pyridine-3-carboxamide] | ≥ 10000 | – | 56
Cc1cnccc1Nc1cnc2c(c1)CN(c1ncc(C#N)cc1C)CC2 [Example 620, 5-methyl-6-(3-((3-methylpyridin-4-yl)amino)-7,8-dihydro-1,6-naphthyridin-6(5H)-yl)nicotinonitrile] | 72 | – | 96
Cc1cc(C#N)cnc1N1CCc2ncc(-n3nccc3C)cc2C1 [Example 345, 5-methyl-6-(3-(5-methyl-1H-pyrazol-1-yl)-7,8-dihydro-1,6-naphthyridin-6(5H)-yl)nicotinonitrile] | 341 | – | 86
Cc1nc2c(c(N3CCc4ncc(C(F)(F)F)cc4C3)n1)CCCC2 [compound 268, 2-methyl-4-(3-(trifluoromethyl)-7,8-dihydro-1,6-naphthyridin-6(5H)-yl)-5,6,7,8-tetrahydroquinazoline] | 4190 | – | 68
Cc1c(Cl)nc(C2CC2)nc1N1CCc2ncc(Nc3ccccc3F)cc2C1 [compound 90, 6-(6-chloro-2-cyclopropyl-5-methyl-pyrimidin-4-yl)-N-(2-fluorophenyl)-7,8-dihydro-5H-1,6-naphthyridin-3-amine] | 7600 | – | 72
Cc1nc(C)c(C)c(N2CCc3ncc(-c4ccc(N5CCOCC5)nc4)cc3C2)n1 [compound 227, 4-(5-(6-(2,5,6-trimethylpyrimidin-4-yl)-5,6,7,8-tetrahydro-1,6-naphthyridin-3-yl)pyridin-2-yl)morpholine] | 266 | – | 67
Cc1ncc(-c2cnc3c(c2)CN(c2ncc(C#N)cc2C)CC3)s1 [compound 185, 5-methyl-6-[3-(2-methylthiazol-5-yl)-7,8-dihydro-5H-1,6-naphthyridin-6-yl]pyridine-3-carbonitrile] | 211 | – | 101
Cc1cc(C(=O)N2CCC2)nnc1N1CCc2ncc(-n3cccn3)cc2C1 [Example 531, (6-(3-(1H-pyrazol-1-yl)-7,8-dihydro-1,6-naphthyridin-6(5H)-yl)-5-methylpyridazin-3-yl)(azetidin-1-yl)methanone] | 241 | – | 83
Cc1c(C#N)nnc(N2Cc3cc(C(F)(F)F)cnc3C(C)C2)c1C (centres unmarked) [Example 348, 4,5-dimethyl-6-(8-methyl-3-(trifluoromethyl)-7,8-dihydro-1,6-naphthyridin-6(5H)-yl)pyridazine-3-carbonitrile] | 331 | – | 70
Cc1cc(C(=O)NCCc2ccncc2)cnc1N1CCc2ncccc2C1 [compound 126, 6-(7,8-dihydro-5H-1,6-naphthyridin-6-yl)-5-methyl-N-[2-(4-pyridyl)ethyl]pyridine-3-carboxamide] | 9080 | – | 63
Cc1cc(C#N)cnc1N1CCc2ncc(Oc3ccc(F)cc3F)cc2C1 [Example 310, 6-(3-(2,4-difluorophenoxy)-7,8-dihydro-1,6-naphthyridin-6(5H)-yl)-5-methylnicotinonitrile] | 600 | – | 90
Cc1cc(C#N)cnc1N1CCc2ncc(Nc3ccccc3F)cc2C1 [Example 7] | 90.5 | – | 94
Cc1c(C#N)nnc(N2CCc3ncc(Nc4ccncc4F)cc3C2)c1C [Example 613, 6-(3-((3-fluoropyridin-4-yl)amino)-7,8-dihydro-1,6-naphthyridin-6(5H)-yl)-4,5-dimethylpyridazine-3-carbonitrile] | 3 | – | 97
Cc1nc(Cl)c(C)c(N2Cc3cc(C(F)(F)F)cnc3C(C)(C)C2)n1 [compound 257, 6-(6-chloro-2,5-dimethylpyrimidin-4-yl)-8,8-dimethyl-3-(trifluoromethyl)-5,6,7,8-tetrahydro-1,6-naphthyridine] | 8310 | – | 39
Cc1cc(C#N)cnc1N1CCc2ncc(Nc3ccc(F)cc3)cc2C1 [Example 2] | 457 | – | 85
Cc1cc(C(=O)NCC(C)(C)O)cnc1N1CCc2ncc(-c3cn(C)nc3C)cc2C1 [Example 461, 6-(3-(1,3-dimethyl-1H-pyrazol-4-yl)-7,8-dihydro-1,6-naphthyridin-6(5H)-yl)-N-(2-hydroxy-2-methylpropyl)-5-methylnicotinamide] | 4100 | – | 76
Cc1cc(C(=O)N2CC(C)(C#N)C2)nnc1N1CCc2ncc(N3CCCn4nccc43)cc2C1 [Example 519, 1-(6-(3-(6,7-dihydropyrazolo[1,5-a]pyrimidin-4(5H)-yl)-7,8-dihydro-1,6-naphthyridin-6(5H)-yl)-5-methylpyridazine-3-carbonyl)-3-methylazetidine-3-carbonitrile] | 14 | – | 80
[2H]C([2H])(NC(=O)c1cc(C)c(N2CCc3ncc(C(F)(F)F)cc3C2)nn1)c1ccncc1 [Example 505, 5-methyl-N-(pyridin-4-ylmethyl-d2)-6-(3-(trifluoromethyl)-7,8-dihydro-1,6-naphthyridin-6(5H)-yl)pyridazine-3-carboxamide] | 21 | – | 112
Cc1c(C#N)nnc(N2CCc3ncc(N4CCOC(c5ccccn5)C4)cc3C2)c1C (centres unmarked) [Example 380, 4,5-dimethyl-6-(3-(2-(pyridin-2-yl)morpholino)-7,8-dihydro-1,6-naphthyridin-6(5H)-yl)pyridazine-3-carbonitrile] | 2150 | – | 63
Cc1nc(C)c(C)c(N2CCc3ncc(N4CCCn5nccc54)cc3C2)n1 [compound 244, 3-(6,7-dihydropyrazolo[1,5-a]pyrimidin-4(5H)-yl)-6-(2,5,6-trimethylpyrimidin-4-yl)-5,6,7,8-tetrahydro-1,6-naphthyridine] | 25 | – | 99
Cc1cc(C(=O)N2CCN(C)CC2)nnc1N1CCc2ncc(N3CCCn4nccc43)cc2C1 [Example 514, (6-(3-(6,7-dihydropyrazolo[1,5-a]pyrimidin-4(5H)-yl)-7,8-dihydro-1,6-naphthyridin-6(5H)-yl)-5-methylpyridazin-3-yl)(4-methylpiperazin-1-yl)methanone] | 635 | – | 103
Cc1nc(C(=O)N2CCOCC2)c(C)c(N2CCc3ncc(C(F)(F)F)cc3C2)n1 [compound 221, (2,5-dimethyl-6-(3-(trifluoromethyl)-7,8-dihydro-1,6-naphthyridin-6(5H)-yl)pyrimidin-4-yl)(morpholino)methanone] | ≥ 10000 | – | 25
Cc1cc(C#N)cnc1N1CCc2ncc(N3CCOC(C)(C)C3)cc2C1 [Example 370, 6-(3-(2,2-dimethylmorpholino)-7,8-dihydro-1,6-naphthyridin-6(5H)-yl)-5-methylnicotinonitrile] | 81 | – | 82
